Assay results from PubChem BioAssay AID330 (DTP/NCI, 2004).
Where “and” joins values, the source holds several entries; their conditions need not be identical. Identical values can stand only once. Toxic doses and inconclusive results are not listed. Rule for the calls: active = survival T/C of 150% or more; inactive = T/C below 125% in these data.

Tested on: P388 leukemia ip, CD2F1 mice, survival T/C
Test: NCI In Vivo Anticancer Drug Screen. Data for tumor model P388 Leukemia (intraperitoneal) in CD2F1 (CDF1) mice
Conditions: endpoint: median survival time, higher = longer survival
How it was run: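 Mice carrying the transplanted tumor received test compound or vehicle. Survival was recorded in each group, and the value is the treated-group measurement divided by that of the vehicle-treated control group.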

[1] = dose: 50.0 mg/kg/injection, schedule: Q01DX009 (ip), vehicle: Klucel (hydroxypropylcellulose) (HPC)
[2] = dose: 100.0 mg/kg/injection, schedule: Q01DX009 (ip), vehicle: Klucel (hydroxypropylcellulose) (HPC)
[3] = dose: 200.0 mg/kg/injection, schedule: Q01DX009 (ip), vehicle: Klucel (hydroxypropylcellulose) (HPC)

Measured: T/C

CCCC/C=C(\C)C(O)C(C)/C=C(\C)CCC(O)C(C)C(O)C(C)C(O)C(C)C1OC(C(C)C(=O)O)CCC1C (configuration not stated)
inactive: dose: 1.5 mg/kg/injection, schedule: Q01DX005 (ip), vehicle: Klucel (hydroxypropylcellulose) (HPC) 103 % of control and 105 % of control | dose: 3.0 mg/kg/injection, schedule: Q01DX005 (ip), vehicle: Klucel (hydroxypropylcellulose) (HPC) 99 % of control and 108 % of control | dose: 6.0 mg/kg/injection, schedule: Q01DX005 (ip), vehicle: Klucel (hydroxypropylcellulose) (HPC) 102 % of control and 109 % of control | dose: 12.0 mg/kg/injection, schedule: Q01DX005 (ip), vehicle: Klucel (hydroxypropylcellulose) (HPC) 99 % of control and 100 % of control

O=C(CCCCCS)NCCCCCCCCCCNC(=O)CCCCCS
inactive: dose: 100.0 mg/kg/injection, schedule: Q04DX002 (ip), vehicle: Klucel (hydroxypropylcellulose) (HPC) 97 % of control | dose: 200.0 mg/kg/injection, schedule: Q04DX002 (ip), vehicle: Klucel (hydroxypropylcellulose) (HPC) 92 % of control | dose: 400.0 mg/kg/injection, schedule: Q04DX002 (ip), vehicle: Klucel (hydroxypropylcellulose) (HPC) 90 % of control

[Cl][Al]([Cl])[Cl]
inactive: dose: 6.25 mg/kg/injection, schedule: Q01DX009 (ip), vehicle: saline 100 % of control | dose: 12.5 mg/kg/injection, schedule: Q01DX009 (ip), vehicle: saline sonified 100 % of control | dose: 12.5 mg/kg/injection, schedule: Q01DX009 (ip), vehicle: saline 100 % of control | dose: 25.0 mg/kg/injection, schedule: Q01DX009 (ip), vehicle: saline sonified 90 % of control | dose: 25.0 mg/kg/injection, schedule: Q01DX009 (ip), vehicle: saline 95 % of control | dose: 50.0 mg/kg/injection, schedule: Q01DX009 (ip), vehicle: saline sonified 95 % of control | dose: 100.0 mg/kg/injection, schedule: Q04DX003 (ip), vehicle: saline 90 % of control | dose: 200.0 mg/kg/injection, schedule: Q04DX003 (ip), vehicle: saline 95 % of control and 100 % of control | dose: 400.0 mg/kg/injection, schedule: Q04DX003 (ip), vehicle: saline 86 % of control

O=C(O)c1cc2ccc(Br)cc2[se]1
inactive: dose: 50.0 mg/kg/injection, schedule: Q01DX009 (ip), vehicle: saline 110 % of control | dose: 100.0 mg/kg/injection, schedule: Q01DX009 (ip), vehicle: saline 99 % of control | dose: 200.0 mg/kg/injection, schedule: Q01DX009 (ip), vehicle: saline 94 % of control

Cc1cc2nc(=O)cc(CCl)n2c(=O)n1C(=O)C(O)C(O)C(O)CO (configuration not stated)
inactive: dose: 50.0 mg/kg/injection, schedule: Q01DX005 (ip), vehicle: saline with Tween-80 109 % of control | dose: 100.0 mg/kg/injection, schedule: Q01DX005 (ip), vehicle: saline with Tween-80 117 % of control | dose: 200.0 mg/kg/injection, schedule: Q01DX005 (ip), vehicle: saline with Tween-80 113 % of control

CC(C)(C)OC(=O)NC(Cc1ccccc1)C(=O)O (configuration not stated)
inactive: dose: 6.25 mg/kg/injection, schedule: Q01DX009 (ip), vehicle: Klucel (hydroxypropylcellulose) (HPC) 101 % of control and 105 % of control | dose: 12.5 mg/kg/injection, schedule: Q01DX009 (ip), vehicle: Klucel (hydroxypropylcellulose) (HPC) 107 % of control | dose: 25.0 mg/kg/injection, schedule: Q01DX009 (ip), vehicle: Klucel (hydroxypropylcellulose) (HPC) 100 % of control and 88 % of control | [1] 111 % of control and 88 % of control | [2] 110 % of control and 97 % of control | [3] 107 % of control and 97 % of control

CC(C)(O)c1cccc2c(C(C)(C)O)cccc12
inactive: [1] 88 % of control | [2] 97 % of control | [3] 93 % of control and 94 % of control | dose: 400.0 mg/kg/injection, schedule: Q01DX009 (ip), vehicle: Klucel (hydroxypropylcellulose) (HPC) 91 % of control

CC(=O)Nc1ccc2c(c1)C(N)c1ccccc1-2 (configuration not stated)
inactive: dose: 100.0 mg/kg/injection, schedule: Q04DX003 (ip), vehicle: saline with Tween-80 104 % of control | dose: 200.0 mg/kg/injection, schedule: Q04DX003 (ip), vehicle: saline with Tween-80 118 % of control

CN1CCCN(C(c2ccccc2)c2ccc(Cl)cc2)CC1 (configuration not stated)
inactive: dose: 6.25 mg/kg/injection, schedule: Q01DX009 (ip), vehicle: saline with Tween-80 107 % of control | dose: 12.5 mg/kg/injection, schedule: Q01DX009 (ip), vehicle: saline with Tween-80 114 % of control and 115 % of control | dose: 25.0 mg/kg/injection, schedule: Q01DX009 (ip), vehicle: saline with Tween-80 107 % of control and 114 % of control | dose: 50.0 mg/kg/injection, schedule: Q01DX009 (ip), vehicle: saline with Tween-80 120 % of control

CC(O)C(C)C(N)C(=O)O (configuration not stated)
inactive: dose: 8.25 mg/kg/injection, schedule: Q01DX005 (ip), vehicle: water 100 % of control | dose: 16.5 mg/kg/injection, schedule: Q01DX005 (ip), vehicle: water 98 % of control | dose: 33.0 mg/kg/injection, schedule: Q01DX005 (ip), vehicle: water 100 % of control | dose: 66.0 mg/kg/injection, schedule: Q01DX005 (ip), vehicle: water 99 % of control
